Data from US10280170B2, “Substituted 4,5,6,7-tetrahydro-pyrazolo[1,5-a]pyrazine derivatives and 5,6,7,8-tetrahydro-4H-pyrazolo[1,5-a][1,4]diazepine derivatives as Ros1 inhibitors” (Janssen Pharmaceutica NV, priority 2014, dated 2019).
Where “and” joins values, the source holds several entries; their conditions need not be identical. Equal values may be shown once.

Experiments:
Ros1 enzyme = target: T1, Ros1 enzyme (Homo sapiens, UniProt P08922); assay: Ros1 enzymatic assay; assay type: biochemical; details: Ros1 enzymatic assay; read-out: ROS1 pIC50 (converted)
T1 construct: 0.5 μg/ml Ros1 enzyme
T1 sequence (P08922 28-2347): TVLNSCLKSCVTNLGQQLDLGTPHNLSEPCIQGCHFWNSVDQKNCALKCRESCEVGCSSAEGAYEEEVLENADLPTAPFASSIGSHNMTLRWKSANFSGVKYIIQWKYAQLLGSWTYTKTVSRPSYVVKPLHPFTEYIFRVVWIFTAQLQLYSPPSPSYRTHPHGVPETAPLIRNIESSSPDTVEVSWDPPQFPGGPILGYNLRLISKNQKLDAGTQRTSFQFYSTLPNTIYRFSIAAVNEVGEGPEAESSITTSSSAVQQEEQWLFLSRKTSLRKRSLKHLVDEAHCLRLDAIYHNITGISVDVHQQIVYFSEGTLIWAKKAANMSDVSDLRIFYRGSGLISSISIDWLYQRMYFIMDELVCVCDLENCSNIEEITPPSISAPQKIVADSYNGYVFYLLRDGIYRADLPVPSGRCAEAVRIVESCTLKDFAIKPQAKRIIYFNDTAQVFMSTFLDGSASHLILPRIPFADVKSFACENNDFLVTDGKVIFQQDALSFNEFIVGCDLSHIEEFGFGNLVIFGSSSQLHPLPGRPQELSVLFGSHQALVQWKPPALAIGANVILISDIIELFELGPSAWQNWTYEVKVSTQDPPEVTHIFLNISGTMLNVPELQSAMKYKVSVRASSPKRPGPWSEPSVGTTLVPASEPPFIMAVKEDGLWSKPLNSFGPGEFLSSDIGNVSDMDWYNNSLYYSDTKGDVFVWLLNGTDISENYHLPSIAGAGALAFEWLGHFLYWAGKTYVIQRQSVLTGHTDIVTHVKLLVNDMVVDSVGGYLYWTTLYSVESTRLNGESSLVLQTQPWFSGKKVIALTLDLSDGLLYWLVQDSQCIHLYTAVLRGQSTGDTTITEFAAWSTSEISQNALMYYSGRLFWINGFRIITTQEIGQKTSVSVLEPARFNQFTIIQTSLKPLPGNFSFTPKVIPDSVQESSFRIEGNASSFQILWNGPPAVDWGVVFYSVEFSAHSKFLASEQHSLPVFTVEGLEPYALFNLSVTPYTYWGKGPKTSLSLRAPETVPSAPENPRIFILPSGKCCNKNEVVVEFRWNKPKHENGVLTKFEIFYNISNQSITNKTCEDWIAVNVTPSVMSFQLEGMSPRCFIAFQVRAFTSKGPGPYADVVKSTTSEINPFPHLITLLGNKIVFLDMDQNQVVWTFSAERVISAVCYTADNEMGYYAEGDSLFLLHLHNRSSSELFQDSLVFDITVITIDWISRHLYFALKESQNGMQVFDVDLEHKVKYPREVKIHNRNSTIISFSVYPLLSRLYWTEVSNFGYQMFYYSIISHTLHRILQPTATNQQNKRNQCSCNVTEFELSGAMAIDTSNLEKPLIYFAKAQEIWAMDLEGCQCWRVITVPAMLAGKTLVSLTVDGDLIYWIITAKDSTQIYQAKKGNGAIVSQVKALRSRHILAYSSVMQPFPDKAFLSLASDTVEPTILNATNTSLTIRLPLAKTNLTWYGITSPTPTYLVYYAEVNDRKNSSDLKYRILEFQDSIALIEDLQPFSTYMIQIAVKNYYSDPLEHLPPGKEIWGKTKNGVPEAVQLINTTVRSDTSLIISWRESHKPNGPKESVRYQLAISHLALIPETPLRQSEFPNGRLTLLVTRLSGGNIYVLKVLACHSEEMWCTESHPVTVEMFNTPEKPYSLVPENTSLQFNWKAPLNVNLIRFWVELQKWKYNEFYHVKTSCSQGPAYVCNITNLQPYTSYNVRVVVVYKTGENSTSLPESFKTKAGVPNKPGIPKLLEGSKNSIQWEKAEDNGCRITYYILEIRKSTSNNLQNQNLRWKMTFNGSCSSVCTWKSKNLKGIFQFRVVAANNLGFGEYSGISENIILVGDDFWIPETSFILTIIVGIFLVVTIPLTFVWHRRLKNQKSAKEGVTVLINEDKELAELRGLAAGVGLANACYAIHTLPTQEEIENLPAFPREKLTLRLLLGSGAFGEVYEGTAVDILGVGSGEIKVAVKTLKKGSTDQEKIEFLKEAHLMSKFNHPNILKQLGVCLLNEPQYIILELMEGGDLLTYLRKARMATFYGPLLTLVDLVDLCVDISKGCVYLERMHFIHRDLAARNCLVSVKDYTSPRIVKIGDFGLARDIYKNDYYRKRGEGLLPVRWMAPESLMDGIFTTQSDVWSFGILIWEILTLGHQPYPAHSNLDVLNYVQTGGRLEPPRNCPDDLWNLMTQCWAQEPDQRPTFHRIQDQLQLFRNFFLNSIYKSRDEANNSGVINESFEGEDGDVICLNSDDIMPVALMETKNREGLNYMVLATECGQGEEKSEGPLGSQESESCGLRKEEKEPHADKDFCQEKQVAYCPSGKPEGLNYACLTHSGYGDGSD
Outline: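 Radiometric proximity read-out: 33P incorporated into IRS-Tide captured on streptavidin imaging beads and imaged on LEADseeker. Phosphorylation ran 120 min at RT with 20 μM ATP (substrate-mix level) in Tris pH7.5/MgCl2/EGTA/Tween buffer; EDTA stop.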

[1] = system: Ba/F3 tumors containing G2032R mutant Ros1; assay: Efficacy study in mice bearing Ba/F3-Ros1 tumors, G2032R mutant Ros1; assay type: in vivo, NMRI nude mice; details: oral gavage, 10 days
Experimental: (§1) Efficacy Studies in Mice Bearing Ba/F3-Ros1 Tumors
(§2) Approximately 2×10^6 Ba/F3 cells containing either wild-type, L2026M or G2032R mutant Ros1 were inoculated into the inguinal region of NMRI nude mice. When the resulting tumors reached a size of 250 to 350 mm^3, mice were randomly assigned to the different treatment groups (8 to 12 mice per group). Compounds formulated in 20% cyclodextrin were administered to the mice by oral gavage at various doses for 10-days once (QD) or twice (BID) a day. Tumor sizes were determined by caliper measurement on day 1 prior to treatment and then twice weekly for the duration of the study using the commonly following formula: tumor volume (mm^3)=(a×b^2/2); where ‘a’ represents the length, and ‘b’ the width of the tumor. Treatment/control (T/C) ratios were calculated at the end of the study based on the change in final relative tumor volumes.

[2] = system: Ba/F3 tumors containing wild-type Ros1; assay: Efficacy study in mice bearing Ba/F3-Ros1 tumors, wild-type Ros1; assay type: in vivo, NMRI nude mice; details: oral gavage, 10 days
Experimental: as §1, §2

[3] = system: Ba/F3 tumors containing L2026M mutant Ros1; assay: Efficacy study in mice bearing Ba/F3-Ros1 tumors, L2026M mutant Ros1; assay type: in vivo, NMRI nude mice; details: oral gavage, 10 days
Experimental: as §1, §2

[4] = system: Ros pY2274 in HCC78 cells; assay: pROS1 immunofluorescence assay in HCC78 cells; assay type: cell-based; details: Homo sapiens, HCC78, 4 h, read-out: HCC78-pRos1 pIC50 (converted)
Outline: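 HCC78 NSCLC cells treated with compound for 4 h at 37 °C, then fixed and immunostained for ROS1 pY2274 (Alexa Fluor 680, read at 700 nm). Total ROS1 stained in parallel (IRDye800cw, 800 nm) and used to normalize phospho signal.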

[5] = target: Ba/F3 cells containing Ros1 with G2032R mutation (Homo sapiens, UniProt P08922, G2032R, cells depend on it, form not given); assay: Ba/F3-Ros1 cell proliferation assay, G2032R crizotinib-resistance mutant; assay type: cell-based, murine; details: without IL-3
Chain of Ba/F3 cells containing Ros1 with G2032R mutation (P08922 whole entry G2032R, form open): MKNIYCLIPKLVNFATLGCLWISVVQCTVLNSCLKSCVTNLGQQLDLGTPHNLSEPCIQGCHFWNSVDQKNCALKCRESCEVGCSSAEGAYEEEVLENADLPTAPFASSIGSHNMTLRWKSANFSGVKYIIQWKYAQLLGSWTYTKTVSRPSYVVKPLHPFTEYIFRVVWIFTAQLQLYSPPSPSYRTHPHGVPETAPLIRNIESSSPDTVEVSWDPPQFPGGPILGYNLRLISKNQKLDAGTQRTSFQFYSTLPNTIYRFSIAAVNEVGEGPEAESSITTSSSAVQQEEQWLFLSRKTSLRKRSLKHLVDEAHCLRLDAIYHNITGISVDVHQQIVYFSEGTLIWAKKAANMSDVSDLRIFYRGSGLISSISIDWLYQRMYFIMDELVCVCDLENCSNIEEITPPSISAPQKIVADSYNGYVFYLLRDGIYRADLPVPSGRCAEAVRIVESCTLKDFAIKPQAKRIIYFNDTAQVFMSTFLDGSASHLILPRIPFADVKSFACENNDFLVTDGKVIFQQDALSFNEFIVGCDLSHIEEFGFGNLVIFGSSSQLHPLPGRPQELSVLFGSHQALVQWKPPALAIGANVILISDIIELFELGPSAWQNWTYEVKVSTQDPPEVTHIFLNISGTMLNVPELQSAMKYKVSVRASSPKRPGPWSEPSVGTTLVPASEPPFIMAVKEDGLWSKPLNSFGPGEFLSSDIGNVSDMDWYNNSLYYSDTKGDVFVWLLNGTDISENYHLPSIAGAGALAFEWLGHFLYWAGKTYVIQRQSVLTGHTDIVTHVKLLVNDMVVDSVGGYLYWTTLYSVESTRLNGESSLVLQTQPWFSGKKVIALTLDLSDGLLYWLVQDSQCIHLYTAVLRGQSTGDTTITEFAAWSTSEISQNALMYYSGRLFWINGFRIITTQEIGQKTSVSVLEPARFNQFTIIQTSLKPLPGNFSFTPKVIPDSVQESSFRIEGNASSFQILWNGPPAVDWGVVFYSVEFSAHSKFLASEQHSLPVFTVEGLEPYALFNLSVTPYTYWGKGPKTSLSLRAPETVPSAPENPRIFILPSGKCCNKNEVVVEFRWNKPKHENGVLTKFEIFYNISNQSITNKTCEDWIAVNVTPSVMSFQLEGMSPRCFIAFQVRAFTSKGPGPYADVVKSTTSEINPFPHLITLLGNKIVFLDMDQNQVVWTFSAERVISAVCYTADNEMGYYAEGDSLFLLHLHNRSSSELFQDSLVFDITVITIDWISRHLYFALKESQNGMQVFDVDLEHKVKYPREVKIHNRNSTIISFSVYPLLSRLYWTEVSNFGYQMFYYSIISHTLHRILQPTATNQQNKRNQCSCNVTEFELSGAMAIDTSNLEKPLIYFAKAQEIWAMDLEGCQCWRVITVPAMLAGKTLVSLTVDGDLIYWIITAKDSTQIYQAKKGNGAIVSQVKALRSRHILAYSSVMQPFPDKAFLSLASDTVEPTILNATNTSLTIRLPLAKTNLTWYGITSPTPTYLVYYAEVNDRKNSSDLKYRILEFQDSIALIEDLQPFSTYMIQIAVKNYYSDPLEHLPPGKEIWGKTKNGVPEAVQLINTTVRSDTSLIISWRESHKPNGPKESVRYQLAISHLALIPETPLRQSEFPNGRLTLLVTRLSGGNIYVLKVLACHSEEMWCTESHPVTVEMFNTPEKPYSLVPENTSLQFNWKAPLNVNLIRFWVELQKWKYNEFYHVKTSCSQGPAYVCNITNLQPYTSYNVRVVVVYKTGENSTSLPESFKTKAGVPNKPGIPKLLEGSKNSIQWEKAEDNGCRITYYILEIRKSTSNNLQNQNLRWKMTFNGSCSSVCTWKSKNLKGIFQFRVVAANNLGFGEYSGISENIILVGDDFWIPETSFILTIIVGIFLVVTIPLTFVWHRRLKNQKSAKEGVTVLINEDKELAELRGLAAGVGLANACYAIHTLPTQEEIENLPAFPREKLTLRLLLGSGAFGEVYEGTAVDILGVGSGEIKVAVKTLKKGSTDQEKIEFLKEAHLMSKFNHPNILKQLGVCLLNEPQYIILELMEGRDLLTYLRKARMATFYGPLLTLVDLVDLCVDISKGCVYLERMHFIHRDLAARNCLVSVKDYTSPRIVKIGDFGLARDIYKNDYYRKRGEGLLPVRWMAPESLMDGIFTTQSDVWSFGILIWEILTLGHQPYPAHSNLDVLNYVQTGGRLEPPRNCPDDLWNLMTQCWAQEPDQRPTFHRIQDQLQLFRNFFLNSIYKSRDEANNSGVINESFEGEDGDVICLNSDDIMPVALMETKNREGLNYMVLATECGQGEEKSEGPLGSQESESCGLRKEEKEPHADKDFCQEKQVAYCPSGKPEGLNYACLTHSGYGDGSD
Experimental: Ba/F3-Ros1 Cell Proliferation Assay
This assay was carried out with Ba/F3 cells containing three different versions of Ros1: the wild-type protein, protein with a mutation at the gatekeeper residue (L2026M), and protein with a mutation identified in a tumor from a patient that became resistant to crizotinib (Xalkori®) treatment (G2032R). Compounds were solubilized in 100% DMSO (dimethyl sulfoxide) and sprayed into polystyrene, tissue culture treated 384-well plates. A 50 μl volume of cell culture medium (phenol red free RPMI-1640, 10% FBS (fetal bovine serum), 2 mM L-Glutamine) containing 20000 Ba/F3-Ros1 cells was added to each well and the plates were placed in an incubator at 37° C. and 5% CO2. After 24 hours, 10 μl of Alamar Blue solution (0.5 mM K3Fe(CN)6, 0.5 mM K4Fe(CN)6, 0.15 mM Resazurin and 100 mM Phosphate Buffer) was added to the wells, incubated for 4 hours at 37° C. and 5% CO2 before RFU's (Relative Fluorescence Units) (ex. 540 nm., em. 590 nm.) were measured in a fluorescence plate reader.

Compound	IC50 (Ros1 enzyme) [nM]	T/C (%) ([1]; 12.5 mg/kg BID)	T/C (%) ([1]; 25 mg/kg BID)	T/C (%) ([2]; 6.25 mg/kg BID)	T/C (%) ([2]; 12.5 mg/kg QD)	T/C (%) ([2]; 25 mg/kg QD)	T/C (%) ([3]; 12.5 mg/kg BID)	IC50 [4] [nM]	Ba/3 Ros1 G2032R (-IL-3) pIC50 [5]	also measured
CC(C)c1ccc(COc2ccc(-c3c(-c4ccncc4)nn4c3C(=O)NCC4)cc2)cc1 [Compound 1]	25.1	43	7	50	12	−27	23	25.1	7.0	T/C (%) ([1]; 6.25 mg/kg BID): 79%; T/C (%) ([2]; 1.56 mg/kg QD): 88%; T/C (%) ([2]; 3.125 mg/kg QD): 75%; T/C (%) ([2]; 6.25 mg/kg QD): 35%; T/C (%) ([2]; 12.5 mg/kg BID): 20%; T/C (%) ([2]; 25 mg/kg BID): −13%; T/C (%) ([3]; 6.25 mg/kg BID): 94%; T/C (%) ([3]; 25 mg/kg QD): 42%
CC(C)c1ccc(COc2ccc(-c3c(-c4ccncc4)nn4c3C(=O)N(CCO)CC4)cc2)cc1 [Compound 2]	20	89	55	67	61	46	82	25.1	7.1	T/C (%) ([1]; 50 mg/kg BID): 18%; T/C (%) ([1]; 100 mg/kg BID): −16%; T/C (%) ([2]; 3.125 mg/kg BID): 91%; T/C (%) ([2]; 12.5 mg/kg BID, 12.5 mg/kg): 47% and 51%; T/C (%) ([2]; 50 mg/kg QD): 20%; T/C (%) ([2]; 100 mg/kg BID): −22%; T/C (%) ([3]; 25 mg/kg BID): 50%; T/C (%) ([3]; 50 mg/kg BID): 28%; T/C (%) ([3]; 100 mg/kg BID): −32%
